Results as given in publication PMC13327620, “A Deep‐Red‐Absorbing Osmium(II) Complex as a Photosensitizer for Photodynamic Therapy Inducing Immunogenic Cell Death” (Angewandte Chemie (International Ed. in English), 2026).

What was measured:
[1] = test system: immune cells in the spleens; assay: Flow cytometry analysis of immune cells in spleens after vaccination; type: in vivo, BALB/c mice; conditions: spleen, 7 days after vaccination
Description: Encouraged by the excellent performance of Os2 in inducing ICD both in vitro and in vivo, we decided to further evaluate the antitumor immune response following vaccination. A key feature of ICD is its ability to initiate antigen‐specific adaptive immune responses. To assess this, we measured the immune cell response in the spleens and the cytokine levels in the serum of mice 7 days after vaccination (Figures 6A and S28).
The BALB/c female mice were randomly divided into 4 groups which were named as Control group, Cisplatin group, Ce6 group and Os2 group. CT26-luc cells were tre ated in vitro with 600 µM Cisplatin in the dark, 6.5 µ M Ce6 or 1.8 µM Os2 upon 740 nm LED light irradiation (60 min, 12.6 J cm-2) following the methods described above. […]
The BALB/c female mice were randomly divided into 4 groups with each group containing 3 mice, which were named as Control group, Cisplatin group, Ce6 group and Os2 group. […] For surfac e marker analysis, the cells were stained with fluorescence- l abeled anti-C D45-AF532 (Thermo Fisher Scientific Inc., Catalog no. 58- 0451- 80, clone 30-F 11 ), anti-CD3- […]
Serum samples were obt ained from the mice on day 7 after treatment. Cytokine was detected using ELISA kits according to the manufacturer ’s instructions: IFN-γ (Biolegend, Catalog no. 430807) and IL -17A ( Bi olegend, Catalog no.432507). […]

[2] = Photostability by UV-vis absorption in PBS with 10% FBS; type: physicochemical; conditions: 10% FBS in PBS, 50 μM
Description: Photostability is a crucial parameter for PSs, as it has a significant impact on their phototoxicity. Based on the results of our in vitro phototoxicity studies, and in view of future in vivo experiments, we decided to investigate the stability of Os2 and Ce6 under deep‐red illumination. Therefore, we monitored the UV–vis absorption spectra of Os2 and Ce6 in biological media (10% FBS in PBS, phosphate‐buffered saline) using a 740 nm excitation wavelength for one hour and a 770 nm excitation wavelength for 2 h, with the duration of light exposure kept consistent with in vitro phototoxicity tests. […]
software Fluofit (PicoQuant GmbH, BERLIN, Germany) based on iterative reconvolution using a Levensberg- M arquandt alg oritm, enabling the obtention of multi-exponential profiles (m ainly one or two exponenti als in our cases ).
Compound Os2 and Ce6 were dissolved in biologically relevant media (PBS solution with 10% FBS) at 50 μ M from the stock solution (10 m M in DMSO). The UV -Vi s spectrum of each complex was recorded from 300 nm to 900 nm at 10- or 20- minutes intervals using BioTek Cytation 5 Cell Imaging Multimode Reader (Agilent […]
The hydrodynamic diameter was determined using dynamic light scattering (DLS, Malvern ZetaSizer Nano ZS) at 25 ℃ . PBS with 10% FBS solutions were filtered through a 0.22 µM membrane before use. […]

For `C=Cc1c(C)c2cc3nc(c(CC(=O)O)c4[nH]c(cc5nc(cc1[nH]2)C(C)=C5CC)c(C)c4C(=O)O)[C@@H](CCC(=O)O)[C@@H]3C` [Ce6, chlorin e6], which “Activated CD8^+ T cells, times that of Control and Cisplatin groups” value [1] is on record?
The value was “around twice higher”.

What about the “Cytotoxic CD8^+ T cells, times higher than Control and Cisplatin groups” value [1] of the same molecule?
The value was “more than 10”.

What about the “Photostability (UV-vis absorption spectrum)” value ([2]; 740 nm excitation, 1 h, 12.60 J/cm2) of the same molecule?
Its value is “decreased by nearly half after 50 min”.

And the “Photostability (UV-vis absorption spectrum)” value ([2]; 770 nm excitation, 2 h, 15.30 J/cm2)?
The value was “did not change”.
